Assay results: US20050267020A1, “Polypeptides derived from inducible hsp70 and pharmaceutical compositions containing the same” (priority 2001, published 2005)

Legend:
[1] = biological target: T1, HLA-A*0201/peptide complex (Homo sapiens, UniProt P04439, D140Y/D185E/D98H/E176V/E277Q/G131W/G231S/I119V/I121R/I166T/I218V/L300P/L318F/N151K/N90K/P208A/P217A/Q86G/Q94H/R138H/R169H/T345S); assay: Assessment of peptide/HLA class I complex stability (DC50); format: binding; conditions: half life (DC50) of the HLA-A*0201/peptide complex
T1 construct: Tap−/− cells expressing the studied HLA-class I molecule; endogenous in cells; host or cells: T2 cells (Tap-/-, HLA-A*0201)
Protocol: Assessment of Peptide/HLA class I Complex Stability. Tap−/− cells (10^6/mL) were incubated overnight with 100 μM of each peptide in serum-free RPMI 1640 medium supplemented with 100 ng/mL of […] at 37° C. Cells were then washed four times to remove free peptide, incubated with Brefeldin A (10 μg/mL) for 1 hour to block cell surface expression of newly synthesized HLA molecules, washed and incubated at 37° C. for 0, 2, 4 or 6 hours. Subsequently, cells were stained with the HLA specific mAb followed by FITC conjugated goat anti mouse Ig mAb. For each time point, peptide induced HLA expression was calculated as: Mean fluorescence of peptide preincubated cells—Mean fluorescence of cells treated in similar conditions in the absence of peptide. DC50 (dissociation complex; DC) was defined as the time required for the loss of 50% of the HLA-A*0201/peptide complexes stabilized at t=0.
The affinity of each peptide was assayed experimentally by determination of the Relative Affinity: the necessary peptide dose to stabilise a reference quantity of HLA-A*0201 molecules at the surface of T2 cells; and the stability of each peptide was assayed by determination of the half-life of the peptide/HLA-A*0201 molecule complex (DC50: dissociation complex 50).

[2] = test system: COS cells transfected with both Hsp70 and HHD expression vectors; assay: Peptide processing assay on COS-transfected cells, TNF-α secretion by murine CTL; format: cell-based, simian
Text: After contact of murine CTL lines with transfected COS cell, CTL recognition of COS cells is expressed as CTL secretion of TNF-α dosed in supernatant (X Axis, TNF-α ranges from 0 to 500 pg/ml). The graphs represent TNF-α dosage by cytotoxic cell lines, respectively mCTL380, mCTL391 mCTL393 and mCTL134, after contact with COS cells. In each graph, upper to lower bars represent the different cells in contact with CTL, respectively: negative control (no COS cell), COS cells, COS cells transfected with Hsp70 expression plasmid, COS cells transfected with HHD expression plasmid, positive control (COS cells transfected with HHD and pulsed with the respective peptide), COS cells transfected with HHD and with Hsp70 expression plasmids.
Peptide Processing Assay on COS-Transfected Cells. 2.2×10^4 simian COS cells were plated in flat-bottom 96 well plates in DMEM 10% FCS, in quadruplicates for each condition. 18 hours later, the medium is discarded, and 100 ng of each DNA plasmid, encoding for Hsp70 and HLA class I molecules, is put in contact with COS cells in DMEM 10% Nuserum […] Chloroquine 10 mg/mL DEAE Dextran. After 4 hours of incubation at 37° C., transfection medium is discarded, and 50 μL PBS 10% DMSO is added for 2 minutes for integration of plasmids. It is then discarded and transfected COS cells are placed in DMEM 10% FCS for 40 hours. Transfected COS cells are then used with 5×10^4 murine CTL in a TNF-α secretion assay.
(§1) TNF-α Secretion Assay. Transfected COS cells on day 4 or 10^5 target tumor cells were plated in 50 μL RPMI 10% FCS and when necessary incubated with 10 μM peptide for 1 hour. In blocking experiments, anti-HLA class I antibody w6/32 or an irrelevant antibody were incubated with target cells for 1 h30. 5×10^4 T cells were then added in 50 μL RPMI 10% FCS and incubated for 6 hours. Each condition was tested in quadruplicates. 50 μL of the supernatant was collected. Standard dilutions were prepared in 50 μL with final doses of TNF-α (kindly provided by I. Apfler, Bender Wien, Austria) ranging from 10^4 to 0.08 pg/mL. On both the supernatants and the standards were added 50 μL of 3×10^4 TNF-α sensitive WEHI-164c13 cells. They were incubated for 16 hours at 37° C. (23). Inhibition of cell proliferation was evaluated by the MTT colorimetric method. Briefly, 50 μL of MTT at 2.5 mg/mL (Sigma-Aldrich) was added and incubated for 4 hours at 37° C. Cells were then lyzed with 100 μL of a pH4.7 33% N,N-dimethyl formamide (Sigma-Aldrich) 20% SDS solution in water. Two hours after cells lysis, OD was measured at 550 nm on a Dynatech MR5000 spectrophotometer. TNF-α quantitation was calculated by linear interpolation with the standard dilutions.

[3] = test system: MCF-7 and SAOS tumor cell lines; assay: Recognition by murine CTL of epitopes at the surface of human tumor cells, TNF-α secretion assay; format: cell-based; conditions: HLA-A*0201+ Hsp70+ tumor cells
Text: CTL recognition of tumoral cells is expressed as CTL secretion of TNF-α dosed in supernatant (X Axis, TNF-α ranges from 0 to 1000 pg/ml) after contact with the cells. Upper to lower bars represent the different cells and reagents in contact with CTL, respectively: 2 negative controls (M113, M44), SAOS, MCF-7, MCF-7 blocked with anti-class I (w6/32) antibody before mixed culture, and MCF-7 blocked with an irrelevant antibody before mixed culture.
as §1
We studied whether the over-expression of Hsp70 described in certain tumor cell lines was high enough to enable these epitopes to be presented at the surface of tumor cells. We addressed this question with our already available high-avidity murine CTLs, hypothesizing that such a high CTL avidity enables the recognition of the highest-Hsp70 expressing human tumor cells. […]

Sequence | Stability (hrs) [1] [h hrs] | processing of the peptide: recognition of Hsp70 + HHD transfected COS cells by the specific murine CTL line [2] | presentation of the epitope at the surface of Hsp70 over-expressing human tumor cells [3]
LMGDKSENV [HSP 380] | 4 | are epitopes | demonstrated
LLLLDVAPL [HSP 391] | >6 | are epitopes | demonstrated
YLGYPVTNAV [HSP 134(10)] |  | are epitopes | 
